Consider 4 compounds from patent publication US20060058339A1, “Compounds modulating c-kit activity and uses therefor” (priority 2004, published 2006).

In experiment [1] the test system is M-07e cell line stimulated by SCF. The experiment in a line: M-07e SCF-stimulated cell proliferation (CellTiter-Glo). The format is cell-based. Particulars: 72 h, 100 ng/ml SCF, three days, luminescence (ATP content), read-out: IC50, growth of SCF stimulated M-07e cells. From the text:
As one example, M-07e cell line (DSMZ catalog #ACC 104) is stimulated by SCF, which binds and activates c-kit tyrosine kinase receptor.
Background: ATP-based viability assays read luminescence as a measure of living cells.

The target in experiment [2] is T1, c-kit kinase domain (Homo sapiens, UniProt P10721).
T1 construct: C-Kit kinase domain (starting amino acid M551, ending amino acid K949); made in house; host or cells: E. coli
T1 sequence (P10721 552-948 limits assumed): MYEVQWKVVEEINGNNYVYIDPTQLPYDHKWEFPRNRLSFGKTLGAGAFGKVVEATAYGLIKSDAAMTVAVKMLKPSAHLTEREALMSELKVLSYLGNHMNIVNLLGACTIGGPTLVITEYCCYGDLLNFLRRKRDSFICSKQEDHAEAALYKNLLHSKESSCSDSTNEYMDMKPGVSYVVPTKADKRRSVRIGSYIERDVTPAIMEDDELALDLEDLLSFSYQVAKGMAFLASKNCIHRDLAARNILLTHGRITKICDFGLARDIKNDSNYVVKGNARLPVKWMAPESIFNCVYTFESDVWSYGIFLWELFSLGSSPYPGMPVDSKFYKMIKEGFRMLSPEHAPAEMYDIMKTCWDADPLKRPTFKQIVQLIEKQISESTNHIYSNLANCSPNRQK
The experiment in a line: c-kit kinase activity biochemical assay (AlphaScreen PY20 or 33P radiolabeled ATP detection). Particulars: as measured by at least one of AlphaScreen or 33P ATP assay; ATP 10 μM in the AlphaScreen assay; read-out: IC50, inhibition of c-kit kinase activity. The text has this:
Compounds 1-1, 1-2, 1-3, and 1-4 of Table 1 were similarly assayed using a ^33P radiolabeled ATP for detection (Upstate USA, Charlottesville, Va.).
For orientation: Alpha assays give light when donor and acceptor beads are brought close together.

In experiment [3] the test system is cells with activating c-kit mutations in the catalytic region. The following applies: Ma et al., 2002, Blood 99:1741-1744; cited from earlier work.

As usually defined, the IC50 is the concentration that gives 50% inhibition.

Each structure is given as a SMILES string.

Regarding `Clc1ccc(CNc2ccc(Cc3c[nH]c4ncccc34)cn2)cc1` [Compound 1-2, (4-chloro-benzyl)-[5-(1H-pyrrolo[2,3-b]pyridin-3-ylmethyl)-pyridin-2-yl]-amine], the IC50 in experiment [1] and in experiment [2] was under 1 µM throughout. Turning to `Fc1ccc(CNc2ccc(Cc3c[nH]c4ncccc34)cn2)cc1` [Compound 1-3, (4-fluoro-benzyl)-[5-(1H-pyrrolo[2,3-b]pyridin-3-ylmethyl)-pyridin-2-yl]-amine], the IC50 in experiment [2] was under 1 µM. As to `Cc1ccc(CNc2ccc(Cc3c[nH]c4ncccc34)cn2)cc1` [Compound 1-4, (4-methyl-benzyl)-[5-(1H-pyrrolo[2,3-b]pyridin-3-ylmethyl)-pyridin-2-yl]-amine], the IC50 in experiment [2] was under 1 µM.

Take `Cc1ccc(NC(=O)c2ccc(CN3CCN(C)CC3)cc2)cc1Nc1nccc(-c2cccnc2)n1` [ST1571]: the “inhibition of cells with c-kit mutations in the catalytic region” value in experiment [3] is listed as “did not inhibit”.
